# From patent US20240109863A1, “2-PYRIDONE DERIVATIVE, AND PREPARATION METHOD THEREFOR AND PHARMACEUTICAL APPLICATION THEREOF” (KPC PHARMACEUTICALS, INC, priority 2020, published 2024)
# Experiments:
# THRβ = target: T1, THRβ (Homo sapiens, UniProt P10828); test: THRβ binding assay (time-resolved FRET coactivator peptide recruitment); assay type: biochemical; conditions: THRβ-LBD/RXRα, SRC2-2 coactivator peptide recruitment, 4 hours at room temperature
# T1 construct: RXRα and THRβ-LBD Eu-anti-GST antibody with GST tag
# Experimental: Experimental methods: In vitro analysis of the agonistic effect of compounds on THRβ was performed using time-resolved fluorescence resonance energy transfer coactivator peptide recruitment assays. The assay used biotin-SRC2-2 coactivator peptide, streptavidin-d2, RXRα and THRβ-LBD Eu-anti-GST antibody with GST tag. Eu-anti-GST antibody indirectly labeled THRβ-LBD by binding to the GST tag. Streptavidin-d2 indirectly labeled the SRC2-2 coactivator peptide by binding to the biotin tag. In the presence of RXRα, THRβ-LBD can form heterodimer THRβ-LBD/RXRα with it. […] According to the effect of different concentrations of the compound on the activity of THRβ, the agonistic ability of the compound can be evaluated.
# The detailed procedure is as follows: • a. 100× reference compound or compound was prepared with DMSO, and equally diluted by 1:3. • b. 100× gradiently diluted reference compound or compound was diluted with 1× reaction buffer to 4×, which was then added to an assay plate. • c. A mixed solution of 4× THRβ-LBD and 4× RXRα was prepared with 1× reaction buffer, and added to the assay plate. • d. A mixed solution of 2× biotin-SRC2-2, 2× Eu-anti-GST, and 2× streptavidin-d2 was prepared with 1× reaction buffer, and added to the assay plate. • e. The assay plate was centrifuged at 1000 rpm for 1 min, and incubated at room temperature in the dark for 4 hours. • f.
# [1] = In vitro liver microsome stability assay; assay type: in vitro ADME; conditions: liver microsomes, pH 7.4; human, 0.2 mg/mL liver microsomal protein, 1 μM test substance, 37° C.; read-out: Liver microsome stability (species: human): T½
# Experimental: The test substance and the positive control substance verapamil were respectively dissolved with DMSO to 10 mM as a stock solution. The above 10 mM stock solution was diluted with 70% acetonitrile aqueous solution to a concentration of 0.25 mM.
# An NADPH regeneration system finally containing concentrations of 6.5 mM NADP, 16.5 mM G-6-P, 3 U/mL G-6-PDH, and 3.3 mM MgCl was prepared.
# Stopping solution was an acetonitrile solution containing tolbutamide and propranolol (both internal standards).
# Phosphate buffer was a 100 mM K3PO4 (pH=7.4) buffer containing 3.3 mM MgCl2.
# Liver microsomal incubation system was a 100 mM phosphate buffer containing 0.2 mg/mL liver microsomal protein and 1 μM test substance/positive control.
# 80 μL of the mixed solution from the incubation system was taken. 400 μL of the stopping solution was added to precipitate protein. The mixture was vortexed and added with 20 μL of NADPH regeneration system as the sample at 0 min.
# 130 μL of NADPH regeneration system was added to the remaining 520 μL of protein-drug mixed solution. The mixture was mixed well, and incubated. The final incubation system was 650 μL, containing 0.2 mg/mL liver microsomal protein, 1 μM test substance/positive control, 1.3 mM NADP, 3.3 mM G-6-P, and 0.6 U/mL G-6-PDH.
# The mixed system was slowly shaken and incubated in a water bath at 37° C. 100 μL of the incubation solution was taken at 5, 10, 30, and 60 min, respectively, and added into a new 96-well plate with 400 μL of stopping solution in each well. The mixture in each well was mixed well, and the protein was precipitated by centrifuging at 4000×g for 15 minutes at 4° C.
# 100 μL of the supernatant was taken, and diluted with water at a ratio of 1:2. The samples were analyzed by LC-MS/MS.
# THRα = target: T2, THRα (Homo sapiens, UniProt P10827); test: THRα binding assay (as the THRβ assay, THRβ replaced with THRα); assay type: biochemical; conditions: for EC50: THRα in place of THRβ; for THRα/β selectivity (fold): ratio of THRα EC50 to THRβ EC50
# T2 construct: GST
# T2 sequence (P10827 1-410 isoform P10827-2, other chains not shown): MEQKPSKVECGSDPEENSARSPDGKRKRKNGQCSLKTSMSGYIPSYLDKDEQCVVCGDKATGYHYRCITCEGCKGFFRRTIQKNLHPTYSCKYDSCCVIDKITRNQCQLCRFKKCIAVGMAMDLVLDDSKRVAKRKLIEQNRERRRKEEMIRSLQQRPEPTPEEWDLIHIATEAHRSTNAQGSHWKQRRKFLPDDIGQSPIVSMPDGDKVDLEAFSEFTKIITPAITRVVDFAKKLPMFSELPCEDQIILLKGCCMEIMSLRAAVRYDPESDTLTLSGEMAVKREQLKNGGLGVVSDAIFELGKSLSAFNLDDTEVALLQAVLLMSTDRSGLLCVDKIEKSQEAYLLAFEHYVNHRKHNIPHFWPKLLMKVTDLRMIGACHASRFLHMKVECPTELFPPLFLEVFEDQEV
# T2 sequence (P19793 whole entry partner, other chains not shown): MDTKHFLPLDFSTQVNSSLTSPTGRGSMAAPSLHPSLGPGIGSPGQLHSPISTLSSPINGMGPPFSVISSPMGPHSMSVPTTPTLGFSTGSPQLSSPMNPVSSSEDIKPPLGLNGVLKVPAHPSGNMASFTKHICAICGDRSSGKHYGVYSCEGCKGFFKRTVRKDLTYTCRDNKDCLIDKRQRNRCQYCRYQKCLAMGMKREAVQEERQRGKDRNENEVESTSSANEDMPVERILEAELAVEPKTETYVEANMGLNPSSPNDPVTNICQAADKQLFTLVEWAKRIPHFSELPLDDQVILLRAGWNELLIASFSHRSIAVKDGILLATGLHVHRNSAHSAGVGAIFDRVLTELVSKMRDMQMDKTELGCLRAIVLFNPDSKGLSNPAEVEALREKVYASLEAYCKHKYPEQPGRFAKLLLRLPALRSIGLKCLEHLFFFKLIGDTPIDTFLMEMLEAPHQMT
# T1 sequence (P10828 217-461 limits assumed, other chains not shown): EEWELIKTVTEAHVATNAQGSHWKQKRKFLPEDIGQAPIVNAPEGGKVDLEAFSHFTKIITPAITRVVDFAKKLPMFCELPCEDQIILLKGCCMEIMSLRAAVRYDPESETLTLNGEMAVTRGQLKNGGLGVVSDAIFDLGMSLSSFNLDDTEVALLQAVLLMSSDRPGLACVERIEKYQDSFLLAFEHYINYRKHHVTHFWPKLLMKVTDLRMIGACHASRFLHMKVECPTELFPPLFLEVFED
# T1 sequence (P19793 whole entry partner, other chains not shown, the tested form may be a part): as the sequence (P19793 whole entry partner, other chains not shown) above
EC50 (THRβ) [nM],half-life at 1 μM [1] [min],EC50 (THRα) [nM],THRα/β selectivity (fold) (THRα),Compound
561,110,–,–,"N#Cc1nn(-c2cc(Cl)c(Oc3ccc(=O)n(C4CCCC4=O)c3)c(Cl)c2)c(=O)[nH]c1=O (stereo not shown) [Example 4, 2-(3,5-dichloro-4-((6-oxo-1-(2-oxocyclopentyl)-1,6-dihydropyridin-3-yl)oxy)phenyl)-3,5-dioxo-2,3,4,5-tetrahydro-1,2,4-triazine-6-carbonitrile]"
793,11.5,–,–,"N#Cc1nn(-c2cc(Cl)c(Oc3cc(Cl)c(=O)n(C4CCCC4)c3)c(Cl)c2)c(=O)[nH]c1=O [Example 15, 2-(3,5-Dichloro-4-[(5-chloro-1-cyclopentyl-6-oxo-1,6-dihydropyridin-3-yl)oxy]phenyl) -3,5-dioxo-2,3,4,5-tetrahydro-1,2,4-triazine-6-carbonitrile]"
12,7,–,–,"N#Cc1nn(-c2cc(Cl)c(Oc3ccc(=O)n(C4CCCCC4)c3)c(Cl)c2)c(=O)[nH]c1=O [Example 9, 2-(3,5-Dichloro-4-((1-cyclohexyl-6-oxo-1,6-dihydropyridin-3-yl)oxy)phenyl)-3,5-dioxo-2,3,4,5-tetrahydro-1,2,4-triazine-6-carbonitrile]"
30,4.6,600,20.0,[2H]C1(n2cc(Oc3c(Cl)cc(-n4nc(C#N)c(=O)[nH]c4=O)cc3Cl)ccc2=O)CCCC1 [Example 14]
450,3.2,–,–,"Cc1cc(Oc2c(Cl)cc(-n3nc(C#N)c(=O)[nH]c3=O)cc2Cl)cn(C2CCCC2)c1=O [Example 17, 2-(3,5-Dichloro-4-[(1-cyclopentyl-5-methyl-6-oxo-1,6-dihydropyridin-3-yl)oxy]phenyl) -3,5-dioxo-2,3,4,5-tetrahydro-1,2,4-triazine-6-carbonitrile]"
23,62.8,290,12.6,"N#Cc1nn(-c2cc(Cl)c(Oc3ccc(=O)n(C4CCC4)c3)c(Cl)c2)c(=O)[nH]c1=O [Example 3, 2-(3,5-dichloro-4-[(1-cyclobutyl-6-oxo-1,6-dihydropyridin-3-yl)oxy]phenyl)-3,5-dioxo-2,3,4,5-tetrahydro-1,2,4-triazine-6-carbonitrile]"
88,> 120,4180,47.5,"N#Cc1nn(-c2cc(Cl)c(Oc3ccc(=O)n(-c4ccccc4)c3)c(Cl)c2)c(=O)[nH]c1=O [Example 20, 2-(3,5-dichloro-4-((6-oxo-1-phenyl-1,6-dihydropyridin-3-yl)oxy)phenyl)-3,5-dioxo-2,3,4,5-tetrahydro-1,2,4-triazine-6-carbonitrile]"
107,> 120,–,–,"N#Cc1nn(-c2cc(Cl)c(Oc3ccc(=O)n(C4CC4)c3)c(Cl)c2)c(=O)[nH]c1=O [Example 10, 2-(3,5-Dichloro-4-((1-cyclopropyl-6-oxo-1,6-dihydropyridin-3-yl)oxy)phenyl)-3,5-diox o-2,3,4,5-tetrahydro-1,2,4-triazine-6-carbonitrile]"
26,–,2690,103.3,"N#Cc1nn(-c2cc(Cl)c(Oc3ccc(=O)n(-c4cccc(C(F)(F)F)c4)c3)c(Cl)c2)c(=O)[nH]c1=O [Example 23, 2-(3,5-dichloro-4-((6-oxo-1-(3-(trifluoromethyl)phenyl)-1,6-dihydropyridin-3-yl)oxy)phenyl)-3,5-dioxo-2,3,4,5-tetrahydro-1,2,4-triazine-6-carbonitrile]"
17,41.6,236,13.9,"N#Cc1nn(-c2cc(Cl)c(Oc3ccc(=O)n(C4=CCCC4)c3)c(Cl)c2)c(=O)[nH]c1=O [Example 11, 2-(3,5-Dichloro-4-((1-(cyclopentyl-1-en-1-yl)-6-oxo-1,6-dihydropyridin-3-yl)oxy)phenyl)-3,5-dioxo-2,3,4,5-tetrahydro-1,2,4-triazine-6-carbonitrile]"
18,4.4,–,–,N#Cc1nn(-c2cc(Cl)c(Oc3ccc(=O)n(C4CCCC4)c3)c(Cl)c2)c(=O)[nH]c1=O [Example 12]
23,–,810,35.2,"N#Cc1nn(-c2cc(Cl)c(Oc3ccc(=O)n(-c4cccc(OC(F)(F)F)c4)c3)c(Cl)c2)c(=O)[nH]c1=O [Example 24, 2-(3,5-Dichloro-4-((6-oxo-1-(3-(trifluoromethoxy)phenyl)-1,6-dihydropyridin-3-yl)oxy)phenyl)-3,5-dioxo-2,3,4,5-tetrahydro-1,2,4-triazine-6-carbonitrile]"
20,2.1,–,–,"N#Cc1nn(-c2cc(Cl)c(Oc3ccc(=O)n(CC4CCCC4)c3)c(Cl)c2)c(=O)[nH]c1=O [Example 5, 2-(3,5-Dichloro-4-((1-(cyclopentylmethyl)-6-oxo-1,6-dihydropyridin-3-yl)oxy)phenyl) -3,5-dioxo-2,3,4,5-tetrahydro-1,2,4-triazine-6-carbonitrile]"
117,–,7630,53.7,"Cc1ccc(-n2cc(Oc3c(Cl)cc(-n4nc(CF)c(=O)[nH]c4=O)cc3Cl)ccc2=O)cc1 [Example 41, 2-(3,5-dichloro-4-((6-oxo-1-(p-tolyl)-1,6-dihydropyridin-3-yl)oxy)phenyl)-6-(fluoromethyl)-1,2,4-triazine-3,5(2H, 4H)-dione]"
18,–,351,19.5,"Cc1nn(-c2cc(Cl)c(Oc3ccc(=O)n(-c4ccccc4)c3)c(Cl)c2)c(=O)[nH]c1=O [Example 36, 2-(3,5-Dichloro-4-((6-oxo-1-phenyl-1,6-dihydropyridin-3-yl)oxy)phenyl)-6-methyl-1,2,4-triazine-3,5(2H, 4H)-dione]"
370,5.1,–,–,"N#Cc1nn(-c2cc(Cl)c(Oc3cc(F)c(=O)n(C4CCCC4)c3)c(Cl)c2)c(=O)[nH]c1=O [Example 16, 2-(3,5-Dichloro-4-((1-cyclopentyl-5-fluoro-6-oxo-1,6-dihydropyridin-3-yl)oxy)phenyl) -3,5-dioxo-2,3,4,5-tetrahydro-1,2,4-triazine-6-carbonitrile]"
20,> 120,669,33.5,"N#Cc1nn(-c2cc(Cl)c(Oc3ccc(=O)n(-c4cccc(F)c4)c3)c(Cl)c2)c(=O)[nH]c1=O [Example 22, 2-(3,5-Dichloro-4-((1-(3-fluorophenyl)-6-oxo-1,6-dihydropyridin-3-yl)oxy)phenyl)-3,5-dioxo-2,3,4,5-tetrahydro-1,2,4-triazine-6-carbonitrile]"
6,> 120,220,36.7,"O=c1[nH]c(=O)n(-c2cc(Cl)c(Oc3ccc(=O)n(-c4ccccc4)c3)c(Cl)c2)nc1CF [Example 35, 2-(3,5-dichloro-4-((6-oxo-1-phenyl-1,6-dihydropyridin-3-yl)oxy)phenyl)-6-(fluoromethyl)-1,2,4-triazine-3,5(2H, 4H)-dione]"
